The experiment addresses MARK1 (Homo sapiens, UniProt Q9P0L2). Put plainly: MARK1 inhibition, IC50 determination (dose-response) using Z'-LYTE assay. The settings on record: for IC50: Z'-LYTE assay, non-linear regression (3-parameters); for Active (Measured): hits of the initial screen followed up with dose-response curves, 1 = true MARK1 inhibitor; for MARK1 inhibitor (result in words): out of the 13 tested compounds. It is filed as biochemical.

As a reminder, the IC50 is the midpoint of a concentration-inhibition curve. Low values mean higher potency, high ones lower potency.

Where a name gives a salt, the structure may show the parent alone.

Sequence of MARK1 (Q9P0L2 whole entry): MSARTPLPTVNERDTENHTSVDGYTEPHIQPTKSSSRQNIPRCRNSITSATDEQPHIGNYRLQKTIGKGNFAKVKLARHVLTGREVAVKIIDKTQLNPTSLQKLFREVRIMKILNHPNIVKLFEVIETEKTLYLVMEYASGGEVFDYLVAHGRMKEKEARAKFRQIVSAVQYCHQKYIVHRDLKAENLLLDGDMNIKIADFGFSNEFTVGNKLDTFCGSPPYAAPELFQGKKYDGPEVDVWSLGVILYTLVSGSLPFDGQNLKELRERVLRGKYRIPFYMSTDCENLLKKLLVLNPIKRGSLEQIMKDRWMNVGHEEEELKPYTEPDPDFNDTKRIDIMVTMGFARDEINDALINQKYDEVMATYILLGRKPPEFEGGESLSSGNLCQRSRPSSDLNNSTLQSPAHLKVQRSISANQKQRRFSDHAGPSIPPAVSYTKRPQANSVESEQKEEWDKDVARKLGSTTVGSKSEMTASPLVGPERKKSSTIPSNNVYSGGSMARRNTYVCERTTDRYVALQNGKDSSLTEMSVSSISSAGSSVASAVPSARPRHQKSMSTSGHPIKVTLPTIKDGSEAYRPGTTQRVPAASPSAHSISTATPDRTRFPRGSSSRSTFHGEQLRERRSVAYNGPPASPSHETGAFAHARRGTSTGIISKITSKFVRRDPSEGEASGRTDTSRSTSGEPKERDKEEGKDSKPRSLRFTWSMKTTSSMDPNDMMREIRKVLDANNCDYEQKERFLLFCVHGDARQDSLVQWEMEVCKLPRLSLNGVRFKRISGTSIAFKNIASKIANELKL

Turning to `O=C(Nc1c[nH]nc1-c1nc2ccc(CN3CCOCC3)cc2[nH]1)NC1CC1` [AT9283], it took 185 nM to reach half-maximal inhibition (IC50), the “Active (Measured)” value came to 1 and the “MARK1 inhibitor (result in words)” value is listed as “true novel MARK1 active inhibitors”.
With `CCS(=O)(=O)N1CC(CC#N)(n2cc(-c3ncnc4[nH]ccc34)cn2)C1` [Baricitinib], inhibition was half-maximal at 166 nM (IC50), the “Active (Measured)” value was 1 and the “MARK1 inhibitor (result in words)” value was “true novel MARK1 active inhibitors”.
Consider `COc1cc(Nc2c(C#N)cnc3cc(OCCCN4CCN(C)CC4)c(OC)cc23)c(Cl)cc1Cl` [Bosutinib], for which the “Active (Measured)” value amounted to 0.
Same read-out and setting: then `Cc1cc(Nc2ncc(Cl)c(Nc3ccccc3S(=O)(=O)C(C)C)n2)c(OC(C)C)cc1C1CCNCC1` [Ceritinib], with 0; and `Cc1cc(C(C#N)c2ccc(Cl)cc2)c(Cl)cc1NC(=O)c1cc(I)cc(I)c1O` (stereo not drawn) [Closantel], with 0.
For the molecule `C[C@@H](Oc1cc(-c2cnn(C3CCNCC3)c2)cnc1N)c1c(Cl)ccc(F)c1Cl` [Crizotinib], the “Active (Measured)” value stood at 0.
The same measure, in the same setting: as for `CC(C)(C)NC[C@H](O)COc1cccc2c1CCCC2=O.Cl` [Levobunolol (hydrochloride)], the figure is 0.
On to `CN1CCN(c2ccc(Nc3ncc4cc(C#N)c(=O)n(C5CCCC5)c4n3)cc2)CC1` [ON123300], for which the half-maximal inhibitory concentration (IC50) was found to be 219 nM, the “Active (Measured)” value was determined as 1 and the “MARK1 inhibitor (result in words)” value is given as “true novel MARK1 active inhibitors”.
On to `C[C@@H]1CCN(C(=O)CC#N)C[C@@H]1N(C)c1ncnc2[nH]ccc12` [Tofacitinib citrate], for which the “Active (Measured)” value is on record as 1 and the “MARK1 inhibitor (result in words)” value is given as “true novel MARK1 active inhibitors”.
In the case of `CC[C@@H]1CN(C(=O)NCC(F)(F)F)C[C@@H]1c1cnc2cnc3[nH]ccc3n12` [Upadacitinib], half-maximal inhibition (IC50) required 327 nM, the “Active (Measured)” value is recorded as 1 and the “MARK1 inhibitor (result in words)” value is listed as “true novel MARK1 active inhibitors”.
As to `COc1cc(O)c2c(c1)oc(=O)c1c3cc(O)c(O)cc3oc21` [Wedelolactone], the “Active (Measured)” value was 0.
As to `CCCCCCCCc1ccc(CCC(N)(CO)CO)cc1` [fingolimod], the “Active (Measured)” value was 0.

For the origin of these results see paper PMC11169557, “The Goldilocks paradigm: comparing classical machine learning, large language models, and few-shot learning for drug discovery applications” (Communications Chemistry, 2024).
